Legend:
Assay type in all cases: biochemical
PAK1, PAK2, PAK3, PAK-4 = assay: PAK isoform inhibition profile of example compounds; conditions: classification of example compounds in the description; underlying IC50 data in Table 8
Description: In some embodiments, the PAK inhibitor is a Group I PAK inhibitor that inhibits, for example, one or more Group I PAK polypeptides, for example, PAK1, PAK2, and/or PAK3. […] In some embodiments, the PAK inhibitor is a PAK2 inhibitor. In some embodiments, the PAK inhibitor is a PAK3 inhibitor. In some embodiments, the PAK inhibitor is a mixed PAK1/PAK3 inhibitor. […] In some embodiments, the PAK inhibitor is a Group II PAK inhibitor that inhibits one or more Group II PAK polypeptides, for example PAK-4, PAK5, and/or PAK6. In some embodiments, the PAK inhibitor is a PAK4 inhibitor. In some embodiments, the PAK inhibitor is a PAK5 inhibitor. In some embodiments, the PAK inhibitor is a PAK6 inhibitor.
(§1) A fluorescence-based assay format is used to determine IC50 values of test compounds in vitro. Purified PAK kinase is incubated with ATP, and a test compound at various concentrations and a substrate peptide containing two fluorophores. In a second step, the reaction mix is incubated with a site-specific protease that cleaves non-phosphorylated but not phosphorylated substrate peptide, disrupting the FRET signal generated by the two fluorophores in the cleaved peptide (Z′Lyte™ Kinase assay platform; Life Technologies).
(§2) Reagents: 50 mM HEPES, pH 7.5; 0.01% BRIJ-35; 10 mM MgCl2; 1 mM EGTA, 2 uM substrate peptide Ser/Thr20 (proprietary Life Technologies Sequence), PAK enzyme [2.42-30.8 ng for PAK1, 0.29-6 ng for PAK2, 1.5-20 ng for PAK3 and 0.1-0.86 ng for PAK4; actual enzyme amounts depend on lot activity of the enzyme preparation]
(§3) Test compounds are dissolved in DMSO at various concentrations; the final DMSO concentration in the assay reaction is 1%.
(§4) ATP concentration at Km apparent is used in the assay [50 μM ATP for PAK1 assay, 75 μM ATP for PAK2 assay, 100 μM ATP for PAK3 assay, 5 μM ATP for PAK-4 assay] in a total assay volume of […] Assay reactions are incubated at room temperature for 1 hr. Following the kinase reaction, 5 μl of 1:256 dilution of development solution A (Life Technologies) is added and the reaction mix is incubated for an additional 1 hr at room temperature.
(§5) Plates are analyzed in a standard fluorescence plate reader (Tecan or equivalent) using an excitation wavelength of 400 nm and emission wavelengths of 445 nm and 520 nm. Inhibition of kinase reaction is determined by emission ratio=emission@445 nm/emission@520 nm

PAK2 = PAK2 (Homo sapiens, UniProt Q13177); assay: Z'Lyte fluorescence-based (FRET) kinase assay, PAK2; conditions: 75 μM ATP (Km apparent), 1 hr room temperature, 1% DMSO
Chain of PAK2 (Q13177 whole entry): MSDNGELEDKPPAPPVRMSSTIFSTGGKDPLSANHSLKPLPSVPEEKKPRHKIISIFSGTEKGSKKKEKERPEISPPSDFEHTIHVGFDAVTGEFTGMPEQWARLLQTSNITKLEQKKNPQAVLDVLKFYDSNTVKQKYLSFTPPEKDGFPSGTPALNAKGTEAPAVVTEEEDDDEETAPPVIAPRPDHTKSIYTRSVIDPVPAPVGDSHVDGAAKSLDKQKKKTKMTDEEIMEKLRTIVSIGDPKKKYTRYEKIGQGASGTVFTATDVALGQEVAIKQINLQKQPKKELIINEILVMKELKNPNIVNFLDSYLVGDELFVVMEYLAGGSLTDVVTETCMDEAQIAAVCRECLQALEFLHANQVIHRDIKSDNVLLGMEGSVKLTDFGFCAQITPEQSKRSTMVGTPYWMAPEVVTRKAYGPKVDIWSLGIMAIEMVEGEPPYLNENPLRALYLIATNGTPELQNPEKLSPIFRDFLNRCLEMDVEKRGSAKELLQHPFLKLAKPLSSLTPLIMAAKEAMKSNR
Description: as §1, §2, §3, §4, §5

PAK1 = PAK1 (Homo sapiens, UniProt Q13153); assay: Z'Lyte fluorescence-based (FRET) kinase assay, PAK1; conditions: 50 μM ATP (Km apparent), 1 hr room temperature, 1% DMSO
Chain of PAK1 (Q13153 whole entry): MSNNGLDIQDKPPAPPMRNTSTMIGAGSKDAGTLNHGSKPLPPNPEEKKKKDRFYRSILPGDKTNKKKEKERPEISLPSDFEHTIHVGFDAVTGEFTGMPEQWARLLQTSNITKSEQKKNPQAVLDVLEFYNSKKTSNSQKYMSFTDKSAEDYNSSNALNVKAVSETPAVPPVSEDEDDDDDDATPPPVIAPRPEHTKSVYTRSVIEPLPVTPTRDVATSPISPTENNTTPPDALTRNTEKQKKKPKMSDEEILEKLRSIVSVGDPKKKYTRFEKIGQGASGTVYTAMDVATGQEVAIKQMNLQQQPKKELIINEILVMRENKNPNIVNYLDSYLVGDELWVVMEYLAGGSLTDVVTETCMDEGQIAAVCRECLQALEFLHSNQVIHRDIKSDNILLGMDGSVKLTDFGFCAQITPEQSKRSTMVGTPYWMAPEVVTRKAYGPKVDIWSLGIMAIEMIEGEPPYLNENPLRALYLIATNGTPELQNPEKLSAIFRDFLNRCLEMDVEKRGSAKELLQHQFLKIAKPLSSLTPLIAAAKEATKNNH
Description: as §1, §2, §3, §4, §5

PAK4 = PAK4 (Homo sapiens, UniProt O96013); assay: Z'Lyte fluorescence-based (FRET) kinase assay, PAK4; conditions: 5 μM ATP (Km apparent), 1 hr room temperature, 1% DMSO
Chain of PAK4 (O96013 whole entry): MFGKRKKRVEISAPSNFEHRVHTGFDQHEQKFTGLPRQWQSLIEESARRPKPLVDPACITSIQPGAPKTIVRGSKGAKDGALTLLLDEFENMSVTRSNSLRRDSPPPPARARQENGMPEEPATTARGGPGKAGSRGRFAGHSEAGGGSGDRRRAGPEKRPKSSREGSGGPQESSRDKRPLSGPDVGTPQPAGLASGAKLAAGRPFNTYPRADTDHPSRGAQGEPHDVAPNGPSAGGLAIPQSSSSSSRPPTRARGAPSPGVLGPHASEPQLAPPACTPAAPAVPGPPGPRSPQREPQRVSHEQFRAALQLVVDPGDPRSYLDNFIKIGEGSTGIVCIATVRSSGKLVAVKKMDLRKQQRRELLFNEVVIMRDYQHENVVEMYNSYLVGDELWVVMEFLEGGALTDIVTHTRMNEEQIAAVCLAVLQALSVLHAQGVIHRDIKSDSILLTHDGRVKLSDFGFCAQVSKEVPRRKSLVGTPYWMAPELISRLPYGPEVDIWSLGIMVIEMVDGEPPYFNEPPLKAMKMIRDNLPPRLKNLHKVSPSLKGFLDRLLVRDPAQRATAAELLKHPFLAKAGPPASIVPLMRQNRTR
Description: as §1, §2, §3, §4, §5

PAK3 = PAK3 (Homo sapiens, UniProt O75914); assay: Z'Lyte fluorescence-based (FRET) kinase assay, PAK3; conditions: 100 μM ATP (Km apparent), 1 hr room temperature, 1% DMSO
Chain of PAK3 (O75914 whole entry): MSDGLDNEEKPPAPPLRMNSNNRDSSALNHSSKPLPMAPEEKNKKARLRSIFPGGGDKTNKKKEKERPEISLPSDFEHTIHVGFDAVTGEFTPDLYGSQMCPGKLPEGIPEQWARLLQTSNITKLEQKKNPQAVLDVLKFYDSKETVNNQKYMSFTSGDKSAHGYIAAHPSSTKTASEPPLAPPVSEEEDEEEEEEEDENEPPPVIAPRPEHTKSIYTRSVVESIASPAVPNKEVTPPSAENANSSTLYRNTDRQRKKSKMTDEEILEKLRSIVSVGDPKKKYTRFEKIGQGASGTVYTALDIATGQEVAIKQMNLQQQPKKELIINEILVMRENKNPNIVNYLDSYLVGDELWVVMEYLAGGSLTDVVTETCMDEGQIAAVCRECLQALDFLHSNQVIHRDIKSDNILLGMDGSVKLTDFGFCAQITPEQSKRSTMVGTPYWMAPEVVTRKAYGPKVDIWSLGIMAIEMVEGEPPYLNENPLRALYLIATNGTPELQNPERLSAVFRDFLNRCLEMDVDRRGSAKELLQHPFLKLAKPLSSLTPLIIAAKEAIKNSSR
Description: as §1, §2, §3, §4, §5

Structure (SMILES) | IC50 (PAK2) | IC50 (PAK1) | IC50 (PAK4) | IC50 (PAK3) | PAK inhibitor type (isoform profile) (PAK1, PAK2, PAK3, PAK-4)
Cc1c(F)cccc1Cn1c(=O)ccc2cnc(Nc3ccc(N4CCN(C)CC4)cc3)nc21 [Compound 49] | 1 to 10 µM | < 1 µM | 1 to 10 µM | > 10 µM | PAK1 inhibitor
CN1CCN(c2ccc(Nc3ncc4ccc(=O)n(Cc5c(F)cccc5Cl)c4n3)cc2)CC1 [Compound 53] | < 1 µM | < 1 µM | < 1 µM | < 1 µM | mixed PAK1/PAK2/PAK3/PAK-4 inhibitor
CN1CCN(c2ccc(Nc3ncc4ccc(=O)n(Cc5c(Cl)cccc5-c5cccs5)c4n3)cc2)CC1 [Compound 83] | > 10 µM | 1 to 10 µM | > 10 µM | > 10 µM | 
COc1cc(Nc2nccc(-c3ccc(NCCN)nc3)n2)cc(OC)c1OC [Compound 95] | 1 to 10 µM | < 1 µM | < 1 µM | 1 to 10 µM | 
CC(C)Oc1ccccc1Cn1c(=O)ccc2cnc(Nc3ccc(N4CCN(C)CC4)cc3)nc21 [Compound 69] | < 1 µM | < 1 µM | < 1 µM | < 1 µM | mixed PAK1/PAK2/PAK3/PAK-4 inhibitor
CN1CCN(c2ccc(Nc3ncc4ccc(=O)n(Cc5ccccc5-c5cccs5)c4n3)cc2)CC1 [Compound 77] | < 1 µM | < 1 µM | 1 to 10 µM | < 1 µM | inhibits all three Group I PAK isoforms (PAK1, 2 and PAK3) with equal or similar potency
O=c1ccc2cnc(Nc3ccc(N4CCNCC4)c(F)c3)nc2n1Cc1c(Cl)cccc1C1CC1 [Compound 86] | < 1 µM |  |  |  | inhibits all three Group I PAK isoforms (PAK1, 2 and PAK3) with equal or similar potency
CN1CCN(c2ccc(Nc3ncc4ccc(=O)n(Cc5ccccc5-c5cc(C(F)(F)F)nn5C)c4n3)cc2)CC1 [Compound 76] | 1 to 10 µM | 1 to 10 µM | > 10 µM | 1 to 10 µM | 
Cc1cccc(Cl)c1Cn1c(=O)ccc2cnc(Nc3ccc(N4CCN(C)CC4)cc3)nc21 [Compound 67] | 1 to 10 µM | < 1 µM | < 1 µM | 1 to 10 µM | 
Cc1cccc(F)c1Cn1c(=O)ccc2cnc(Nc3ccc(N4CCN(C)CC4)cc3)nc21 [Compound 65] | < 1 µM | < 1 µM | < 1 µM | < 1 µM | mixed PAK1/PAK2/PAK3/PAK-4 inhibitor
CC(c1ccccc1C(F)(F)F)n1c(=O)ccc2cnc(Nc3ccc(N4CCN(C)CC4)cc3)nc21 (centres unmarked) [Compound 70] | > 10 µM | 1 to 10 µM | 1 to 10 µM | > 10 µM | 
COc1cccc2c1C(n1c(=O)ccc3cnc(Nc4ccc(N5CCN(C)CC5)cc4)nc31)CC2 (centres unmarked) [Compound 1, 8-(7-methoxy-2,3-dihydro-1H-inden-1-yl)-2-(4-(4-methylpiperazin-1-yl)phenylamino)pyrido[2,3-d]pyrimidin-7(8H)-one] | > 10 µM | 1 to 10 µM | 1 to 10 µM | > 10 µM | 
CN1CCN(c2ccc(Nc3ncc4ccc(=O)n(Cc5c(Cl)cccc5-c5ccccc5)c4n3)cc2)CC1 [Compound 82] | > 10 µM | 1 to 10 µM | 1 to 10 µM | > 10 µM | 
CN1CCN(c2ccc(Nc3ncc4ccc(=O)n(Cc5cccc(Cl)c5)c4n3)cc2)CC1 [Compound 34] | > 10 µM | 1 to 10 µM | > 10 µM |  | 
CN1CCN(c2ccc(Nc3ncc4ccc(=O)n(Cc5c(F)cccc5C(F)(F)F)c4n3)cc2)CC1 [Compound 60] | < 1 µM |  |  |  | mixed PAK1/PAK2/PAK3/PAK-4 inhibitor
CSc1cccc(F)c1Cn1c(=O)ccc2cnc(Nc3ccc(N4CCN(C)CC4)cc3)nc21 [Compound 91, 8-(2-fluoro-6-(methylthio)benzyl)-2-(4-(4-methylpiperazin-1-yl)phenylamino)pyrido[2,3-d]pyrimidin-7(8H)-one] | < 1 µM |  |  |  | mixed PAK1/PAK2/PAK3/PAK-4 inhibitor

More lines, main results first:

IC50 (PAK2) | IC50 (PAK1) | IC50 (PAK4) | IC50 (PAK3) | Structure (SMILES) | PAK inhibitor type (isoform profile) (PAK1, PAK2, PAK3, PAK-4)
< 1 µM |  |  |  | O=c1c(-c2ccccc2)cc2cnc(Nc3ccc(N4CCNCC4)cc3)nc2n1Cc1ccccc1C(F)(F)F [Compound 120] | inhibits all three Group I PAK isoforms (PAK1, 2 and PAK3) with equal or similar potency
< 1 µM | < 1 µM | > 10 µM | < 1 µM | CN1CCN(c2ccc(Nc3ncc4cc(-c5ccccc5)c(=O)n(Cc5ccccc5C(F)(F)F)c4n3)cc2)CC1 [Compound 119] | inhibits all three Group I PAK isoforms (PAK1, 2 and PAK3) with equal or similar potency
> 10 µM | 1 to 10 µM | > 10 µM |  | CN1CCN(c2ccc(Nc3nccc(-c4ccc(Cl)nc4)n3)cc2)CC1 [Compound 97] | 
1 to 10 µM | 1 to 10 µM | 1 to 10 µM |  | CN(C)CCOc1ccc(Nc2nccc(-c3ccc(NCCN)nc3)n2)cc1 [Compound 96] | 
> 10 µM | 1 to 10 µM | > 10 µM |  | CN1CCN(CCNc2ccc(-c3ccnc(Nc4ccc(N5CCN(C)CC5)cc4)n3)cn2)CC1 [Compound 103] | 
> 10 µM | 1 to 10 µM | > 10 µM |  | CN(C)CCOc1ccc(-c2ccnc(Nc3ccc(N4CCN(C)CC4)cc3)n2)cn1 [Compound 102] | 
1 to 10 µM | 1 to 10 µM | < 1 µM | > 10 µM | CN1CCN(c2ccc(Nc3nccc(-c4ccc(NCCN5CCCCC5)nc4)n3)cc2)CC1 [Compound 100] | 
1 to 10 µM | 1 to 10 µM | < 1 µM | > 10 µM | CC(C)CNc1ccc(-c2ccnc(Nc3ccc(N4CCN(C)CC4)cc3)n2)cn1 [Compound 104] | 
1 to 10 µM | 1 to 10 µM | 1 to 10 µM |  | CCCNc1ccc(-c2ccnc(Nc3ccc(N4CCN(C)CC4)cc3)n2)cn1 [Compound 105] | 
1 to 10 µM |  |  |  | Cc1cc(Nc2nccc(-c3ccc(NCCN)nc3)n2)ccc1N1CCN(C)CC1 [Compound 106] | mixed PAK1/PAK-4 inhibitor
1 to 10 µM | < 1 µM | 1 to 10 µM |  | CN1CCN(c2ccc(Nc3nccc(-c4ccc(NCCCN)nc4)n3)cc2)CC1 [Compound 98] | PAK1 inhibitor
1 to 10 µM | 1 to 10 µM | < 1 µM | > 10 µM | Cc1cc(Nc2nccc(-c3ccc(NCCN4CCCCC4)nc3)n2)ccc1N1CCN(C)CC1 [Compound 107] | 
> 10 µM | > 10 µM | > 10 µM |  | CN1CCN(c2ccc(N(C)c3nccc(-c4ccc(NCCN)nc4)n3)cc2)CC1 [Compound 114] | 
> 10 µM | 1 to 10 µM | < 1 µM | > 10 µM | CCNc1ccc(-c2ccnc(Nc3ccc(N4CCN(C)CC4)cc3)n2)cn1 [Compound 109] | 
1 to 10 µM | 1 to 10 µM | 1 to 10 µM |  | CN(C)CCNc1ccc(-c2ccnc(Nc3ccc(N4CCN(C)CC4)cc3)n2)cn1 [Compound 101] | 
> 10 µM | 1 to 10 µM | 1 to 10 µM |  | CN1CCN(c2ccc(Nc3nccc(-c4ccc(NCCN5CCOCC5)nc4)n3)cc2)CC1 [Compound 99] | 
1 to 10 µM | 1 to 10 µM | < 1 µM | > 10 µM | CN1CCN(c2cccc(Nc3nccc(-c4ccc(NCCN)nc4)n3)c2)CC1 [Compound 112] | 
1 to 10 µM | 1 to 10 µM | 1 to 10 µM | > 10 µM | CN1CCN(c2ccc(Nc3nccc(-c4ccc(N)nc4)n3)cc2)CC1 [Compound 108] | 
> 10 µM | > 10 µM | < 1 µM | > 10 µM | CC(=O)N1CCN(c2ccc(Nc3nccc(-c4ccc(NCCN)nc4)n3)cc2)CC1 [Compound 115] | 
1 to 10 µM | 1 to 10 µM | 1 to 10 µM | > 10 µM | CN1CCN(c2ccc(Nc3nccc(-c4ccc(N(C)CCN)nc4)n3)cc2)CC1 [Compound 110] | 
